Measurements reported in PMC2847825 (Biological chemistry, 2009).

Target: T1, phenylalanine hydroxylase (Rattus norvegicus, UniProt P04176)
T1 sequence (P04176 2-453): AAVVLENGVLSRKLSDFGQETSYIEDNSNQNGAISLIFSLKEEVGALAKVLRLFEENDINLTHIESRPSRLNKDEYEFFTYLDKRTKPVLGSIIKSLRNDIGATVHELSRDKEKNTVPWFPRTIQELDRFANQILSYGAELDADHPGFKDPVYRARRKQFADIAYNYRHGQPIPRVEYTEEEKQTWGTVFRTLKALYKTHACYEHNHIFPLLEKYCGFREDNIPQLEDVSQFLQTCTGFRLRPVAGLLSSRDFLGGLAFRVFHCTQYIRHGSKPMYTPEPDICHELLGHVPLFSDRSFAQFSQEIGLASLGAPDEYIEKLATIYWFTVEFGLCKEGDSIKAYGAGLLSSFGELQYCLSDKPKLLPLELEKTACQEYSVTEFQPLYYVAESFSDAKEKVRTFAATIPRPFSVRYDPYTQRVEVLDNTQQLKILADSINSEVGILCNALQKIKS
Test: recombinant enzyme activity, HPLC detection of tyrosine
Assay type: biochemical

recombinant enzyme activity, HPLC detection of tyrosine: 0.01 mM
SMILES: c1cnc2c(c1)ccc1cccnc12 [1,10-phenanthroline]
